According to patent US12472182B2, “Compositions comprising regulatory t cells and methods of making and using the same” (Cellenkos, Inc., priority 2019, dated 2025):

What was measured:
[1] = test system: interferon (IFN)-gamma released by SLE-PBMC; assay: IFN-gamma release by pathogenic lupus cells; assay type: cell-based, human; details: control, non-specific inflammatory stimulus
Source text: FIG. 32 is a bar graph depicting the amount of interferon (IFN)-gamma released by pathogenic lupus cells in the presence or absence of combinations of (1) activated Treg cells; (2) ruxolitinib; and/or (3) camptothecin. Rux=ruxolitinib. SLE-PBMC=peripheral blood mononuclear cells derived from subjects with systemic lupus erythematosus. D6=Day 6.

[2] = test system: xenogeneic mouse graft versus host disease (GVHD) model; details: in vivo
Protocol: FIG. 33 depicts a schematic for treatment of a xenogeneic mouse graft versus host disease (GVHD) model with a ruxolitinib and activated Treg cells regimen. PBMC=peripheral blood mononuclear cells.
A xenogeneic mouse graft versus host disease (GVHD) model was treated with a ruxolitinib and activated CB Treg cells regimen, as depicted in FIG. 33. NSG mice underwent sublethal irradiation on day −1 followed by injection of 1×10^7 donor peripheral blood (PB) mononuclear cells (MNCs) on day 0. Oral ruxolitinib at 1 mg daily was fed continuously to the mice in the presence or absence of 1×10^7 CB Treg cells, tagged with CellTrace™ Violet dye (ThermoFisher), administered on days +4, +7, +11, +18. Mice were followed every other day for weight, GVHD score and survival. Serial blood draws were performed to analyze for cell compartment and cytokine assays.

## CC[C@@]1(O)C(=O)OCc2c1cc1n(c2=O)Cc2cc3ccccc3nc2-1 [Camptothecin]
[1]
  IFNγ secretion from CB Treg cells: does not increase IFNγ secretion

## N#CC[C@H](C1CCCC1)n1cc(-c2ncnc3[nH]ccc23)cn1 [ruxolitinib]
[2]
  CB Treg persistence: improved CB Treg persistence
